Test results reported in PMC9024521, “4-Heteroaryl Substituted Amino-3,5-Dicyanopyridines as New Adenosine Receptor Ligands: Novel Insights on Structure-Activity Relationships and Perspectives” (Pharmaceuticals, 2022).

What was measured:
hA1AR [1] = target: T1, hA1AR (Homo sapiens, UniProt P30542); assay: Competition binding, [3H]DPCPX, hA1 CHO cell membranes; details: displacement of [3H]DPCPX, hA1 CHO cells; mean ± SEM of four assays
T1 construct: host or cells: CHO cells
T1 sequence (P30542 1-326): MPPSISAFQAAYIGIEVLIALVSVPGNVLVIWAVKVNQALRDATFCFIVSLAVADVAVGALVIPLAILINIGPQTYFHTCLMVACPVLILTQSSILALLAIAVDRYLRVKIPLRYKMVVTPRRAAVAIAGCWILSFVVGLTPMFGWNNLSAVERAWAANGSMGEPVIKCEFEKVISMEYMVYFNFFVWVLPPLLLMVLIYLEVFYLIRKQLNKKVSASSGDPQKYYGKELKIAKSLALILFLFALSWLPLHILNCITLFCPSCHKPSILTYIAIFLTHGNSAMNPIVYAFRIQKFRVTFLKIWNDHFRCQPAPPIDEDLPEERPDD
Experimental: (§1) CHO cells transfected with hA1, hA2A, hA2B and hA3 ARs (Perkin Elmer, Boston, MA, USA) were grown adherently and maintained in Dulbecco’s modified Eagle’s medium with nutrient mixture F12, containing 10% fetal calf serum, penicillin (100 U/mL), streptomycin (100 μg/mL), L-glutamine (2 mM) and geneticine (G418; 0.2 mg/mL), at 37 °C, in 5% CO2/95% air, until their use in cAMP assays. For membrane preparation, the culture medium was removed, and the cells were washed with phosphate-buffered saline and scraped off T75 flasks in ice-cold hypotonic buffer (5 mM Tris HCl, 1 mM EDTA, pH 7.4). The cell suspension was homogenized with a Polytron, centrifuged for 30 min at 40,000× g, at 4 °C, and the resulting membrane pellet was used for competition binding experiments.
(§2) All synthesized compounds were tested for their affinity to hA1, hA2A and hA3 ARs. Competition experiments to hA1AR were carried out by incubating 1 nM [^3H]-8-cyclopentyl-1,3-dipropylxanthine ([^3H]-DPCPX) with membrane suspension (50 μg of protein/100 μL) and different concentrations of the examined compounds at 25 °C for 90 min in 50 mM Tris HCl, pH 7.4. Non-specific binding was defined as binding in the presence of 1 μM DPCPX and was always <10% of the total binding. Inhibition experiments to hA2A ARs were performed by incubating the radioligand [^3H]-4-(-2-[7-amino-2-{2-furyl}{1,2,4}triazolo{2,3-a} {1,3,5}triazin-5-yl-amino]ethyl)phenol ([^3H]-ZM241385) (1 nM) with the membrane suspension (50 μg of protein/100 μL) and different concentrations of the examined compounds for 60 min, at 4 °C, in 50 mM Tris HCl (pH 7.4), 10 mM MgCl2. Non-specific binding was determined in the presence of ZM241385 (1 μM) and was about 20% of the total binding. Competition binding experiments to A3ARs were carried out by incubating the membrane suspension (50 μg of protein/100 μL) with 0.5 nM [^125I]-N6-(4-aminobenzyl)-N-methylcarboxamidoadenosine ([^125I]-ABMECA) in the presence of different concentrations of the examined compounds for an incubation time of 120 min, at 4 °C, in 50 mM Tris HCl (pH 7.4), 10 mM MgCl2, 1 mM EDTA. Non-specific binding was defined as binding in the presence of 1 μM ABMECA and was always <10% of the total binding. Bound and free radioactivity were separated by filtering the assay mixture through Whatman GF/B glass-fiber filters, using a Brandel cell harvester (Brandel Instruments, Unterföhring, Germany). The filter bound radioactivity was counted by Packard Tri Carb 2810 TR scintillation counter (Perkin Elmer).
(§3) The protein concentration was determined according to a Bio-Rad method, with bovine albumin as a standard reference. Inhibitory binding constant (Ki) values were calculated from those of IC50 according to the Cheng–Prusoff equation, Ki = IC50/(1 + [C*]/KD*), where [C*] is the concentration of the radioligand, and KD* its dissociation constant. Ki and IC50 values were calculated by non-linear regression analysis, using the equation for a sigmoid concentration-response curve (Graph-PAD Prism, San Diego, CA, USA).

hA2AAR = target: T2, hA2AAR (Homo sapiens, UniProt P29274); assay: Competition binding, [3H]ZM241385, hA2A CHO cell membranes; details: for Ki: displacement of [3H]ZM241385, hA2A CHO cells, mean ± SEM of four assays
T2 construct: host or cells: CHO cells
Experimental: as §1, §2, §3

hA3AR = target: T3, hA3AR (Homo sapiens, UniProt P0DMS8); assay: Competition binding, [125I]AB-MECA, hA3 CHO cell membranes; details: for Ki: displacement of [125I]AB-MECA, hA3 CHO cells, mean ± SEM of four assays; for inhibition at 1 µM: 1 µM compound, [125I]AB-MECA binding, read-out: I% hA3 (percentage of inhibition)
T3 construct: host or cells: CHO cells
T3 sequence (P0DMS8 1-318): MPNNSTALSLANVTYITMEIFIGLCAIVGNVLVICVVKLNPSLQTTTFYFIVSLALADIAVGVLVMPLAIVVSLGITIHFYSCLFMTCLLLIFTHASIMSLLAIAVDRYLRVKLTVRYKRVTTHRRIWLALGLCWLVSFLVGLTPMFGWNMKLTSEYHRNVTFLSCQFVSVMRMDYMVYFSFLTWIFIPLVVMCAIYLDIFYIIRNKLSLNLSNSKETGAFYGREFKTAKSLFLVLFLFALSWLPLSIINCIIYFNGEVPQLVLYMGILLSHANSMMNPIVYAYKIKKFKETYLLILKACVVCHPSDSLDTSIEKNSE
Experimental: as §1, §2, §3

hA2B AR = target: T4, hA2B AR (Homo sapiens, UniProt P29275); assay: cAMP assay in CHO cells expressing hA2B AR (stimulation of cAMP production); format: cell-based; details: for Emax at 1 µM: CHO, 1 µM compound, in comparison with NECA (1 µM = 100%), read-out: Efficacy hA2B (cAMP assay) (converted); for EC50: hA2B CHO cells, mean ± SEM of four assays
T4 construct: host or cells: CHO cells
T4 sequence (P29275 1-332): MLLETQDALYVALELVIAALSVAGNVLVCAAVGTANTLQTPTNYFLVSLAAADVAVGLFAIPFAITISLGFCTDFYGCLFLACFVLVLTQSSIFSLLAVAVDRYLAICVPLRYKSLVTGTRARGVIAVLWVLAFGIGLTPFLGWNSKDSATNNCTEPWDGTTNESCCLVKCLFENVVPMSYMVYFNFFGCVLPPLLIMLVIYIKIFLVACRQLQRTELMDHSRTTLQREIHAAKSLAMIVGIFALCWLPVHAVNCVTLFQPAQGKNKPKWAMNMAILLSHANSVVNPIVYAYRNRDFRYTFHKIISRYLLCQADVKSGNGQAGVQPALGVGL
Experimental: (§4) The amino-3,5-dicyanopyridines 1–21 were tested for their affinity at hA1, hA2A and hA3 ARs, stably transfected in Chinese Hamster Ovary (CHO) cells. Moreover, they were also studied as hA2B agonists by evaluating their stimulatory effect on cAMP production in CHO cells, stably expressing the hA2B AR. […] Due to their interesting pan profile, both compounds 1 and 5 were evaluated as AR agonists also at the hA2A and hA3 subtypes.
as §1
(§5) CHO cells transfected with hAR subtypes were washed with phosphate-buffered saline, detached with tripsine and centrifuged for 10 min at 200× g. Cells were seeded in a 96-well white half-area microplate (Perkin Elmer, Boston, USA) in a stimulation buffer composed of Hank Balanced Salt Solution, 5 mM HEPES, 0.5 mM Ro 20–1724, 0.1% BSA. The cAMP levels were then quantified by using the AlphaScreen cAMP Detection Kit (Perkin Elmer, Boston, MA, USA), following the manufacturer’s instructions. At the end of the experiments, the plates were read with a Perkin Elmer EnSight Multimode Plate Reader.

hA1AR [2] = target: T1, hA1AR; assay: Modulation of Forskolin-stimulated cAMP levels in hA1 CHO cells; format: cell-based
Experimental: as §4, §1, §5

T2 sequence (P29274 whole entry): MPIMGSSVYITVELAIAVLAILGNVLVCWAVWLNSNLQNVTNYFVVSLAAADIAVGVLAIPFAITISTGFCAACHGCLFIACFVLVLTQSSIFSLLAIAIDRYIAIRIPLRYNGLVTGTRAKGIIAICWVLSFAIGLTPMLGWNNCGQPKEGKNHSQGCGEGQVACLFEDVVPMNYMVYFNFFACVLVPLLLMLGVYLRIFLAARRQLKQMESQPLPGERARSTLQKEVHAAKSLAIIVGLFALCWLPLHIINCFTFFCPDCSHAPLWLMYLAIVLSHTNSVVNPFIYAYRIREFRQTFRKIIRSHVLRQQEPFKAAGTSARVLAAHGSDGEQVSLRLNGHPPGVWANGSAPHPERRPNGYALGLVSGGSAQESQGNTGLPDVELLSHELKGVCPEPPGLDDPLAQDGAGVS

Row | Structure (SMILES) | Ki (hA1AR [1]) [nM] | Ki (hA2AAR) [nM] | Ki (hA3AR) [nM] | Emax at 1 µM (hA2B AR) [%] | EC50 (hA2B AR) [nM] | inhibition at 1 µM (hA3AR) [%] | melting point | inhibition at 1 µM (hA2AAR; 1 µM compound, [3H]ZM241385 binding, read-out: I% hA2A (percentage of inhibition)) [%] | EC50 (hA1AR [2]; footnote c, mean ± SEM of four experiments, read-out: hA1AR EC50 or IC50, potency to modulate Forskolin-stimulated cAMP levels) [nM] | hA1AR Efficacy (hA1AR [2]; normalized: CCPA full agonist = 100%, DPCPX inverse agonist = −100%) [%] | hA1AR Profile (hA1AR [2]; pharmacological profile in cAMP assay)
1 | Cc1ccc(-c2c(C#N)c(N)nc(SCc3ncc[nH]3)c2C#N)o1 [Compound 3, 2-Amino-6-[(1H-imidazol-2-ylmethyl)sulfanyl]-4-(5-methylfuran-2-yl)pyridine-3,5-dicarbonitrile] | 10.1 ± 0.8 | 10.5 ± 0.9 | 279 ± 21 | 1 | > 1000 |  |  |  |  |  | 
2 | CC(=O)Nc1nc(SCc2ncc[nH]2)c(C#N)c(-c2ccco2)c1C#N [Compound 21, N-{3,5-dicyano-4-(furan-2-yl)-6-[(1H-imidazol-2-ylmethyl)sulfanyl]pyridin-2-yl}acetamide] | 34 ± 3 | 394 ± 27 | 768 ± 63 | 1 | > 1000 |  |  |  |  |  | 
3 | N#Cc1c(N)nc(SCc2ncc[nH]2)c(C#N)c1-c1cccnc1 [Compound 8, 2′-Amino-6′-[(1H-imidazol-2-ylmethyl)sulfanyl]-3,4′-bipyridine-3′,5′-dicarbonitrile] | 5.26 ± 0.48 | 463 ± 38 |  | 58 | 63 ± 5 | 19 | 244 to 245 °C (dec.) |  |  |  | 
4 | N#Cc1c(NC2CCCC2)nc(SCc2ncc[nH]2)c(C#N)c1-c1ccco1 [Compound 18] | 393 ± 32 | 138 ± 11 | 279 ± 21 | 2 | > 1000 |  | 221 to 222 °C |  |  |  | 
5 | N#Cc1c(N)nc(SCc2ncc[nH]2)c(C#N)c1-c1ccsc1 [Compound 6, 2-Amino-6-[(1H-imidazol-2-ylmethyl)sulfanyl]-4-(thiophen-3-yl)pyridine-3,5-dicarbonitrile] | 1.01 ± 0.09 | 55 ± 6 | 221 ± 20 | 47 | 3.15 ± 0.29 |  | 239 to 241 °C (dec.) |  |  |  | 
6 | N#Cc1c(NC2CC2)nc(SCc2ncc[nH]2)c(C#N)c1-c1ccco1 [Compound 19] | 292 ± 26 |  |  | 13 | > 1000 | 18 | 241 to 242 °C | 1 |  |  | 
7 | Br.N#Cc1c(N)nc(SCc2ncc[nH]2)c(C#N)c1-c1ccc(CO)o1 [Compound 2, 2-Amino-4-[5-(hydroxymethyl)furan-2-yl]-6-[(1H-imidazol-2-ylmethyl)sulfanyl]pyridine-3,5-dicarbonitrile hydrobromide] | 190 ± 16 | 233 ± 19 | 290 ± 23 | 8 | > 1000 |  | 293 to 294 °C |  |  |  | 
8 | N#Cc1c(N)nc(SCc2ncc[nH]2)c(C#N)c1-c1ccoc1 [Compound 4, 2-Amino-4-(furan-3-yl)-6-[(1H-imidazol-2-ylmethyl)sulfanyl]pyridine-3,5-dicarbonitrile] | 0.77 ± 0.09 | 37 ± 3 | 274 ± 23 | 42 | 2.32 ± 0.21 |  |  |  |  |  | 
9 | N#Cc1c(N)nc(SCc2csc(C(=O)NCCc3cnc[nH]3)n2)c(C#N)c1-c1ccco1 [Compound 17, 4-({[6-Amino-3,5-dicyano-4-(furan-2-yl)pyridin-2-yl]sulfanyl}methyl)-N-[2-(1H-imidazol-5-yl)ethyl]-1,3-thiazole-2-carboxamide] | 33 ± 3 | 279 ± 22 | 542 ± 48 | 6 | > 1000 |  |  |  | 38 ± 3 | 54 ± 4 | Partial Agonist
10 | N#Cc1c(N)nc(NCCc2c[nH]cn2)c(C#N)c1-c1ccco1 [Compound 13, 2-Amino-4-(furan-2-yl)-6-{[2-(1H-imidazol-4-yl)ethyl]amino}pyridine-3,5-dicarbonitrile] | 174 ± 14 | 125 ± 10 |  | 9 | > 1000 | 6 | 242 °C (dec.) |  |  |  | 
11 | N#Cc1c(N)nc(SCc2ncc[nH]2)c(C#N)c1-c1ccncc1 [Compound 7, 2-Amino-6-[(1H-imidazol-2-ylmethyl)sulfanyl]-4,4′-bipyridine-3,5-dicarbonitrile] | 8.85 ± 0.82 | 81 ± 7 |  | 36 | 12.5 ± 1.3 | 26 | 230 °C (dec.) |  |  |  | 
12 | N#Cc1c(N)nc(SCc2ncc[nH]2)c(C#N)c1-c1ccc(O)nc1 [Compound 10, 2′-Amino-6-hydroxy-6′-[(1H-imidazol-2-ylmethyl)sulfanyl]-3,4′-bipyridine-3′,5′-dicarbonitrile] | 149 ± 11 | 613 ± 53 |  | 1 | > 1000 | 23 |  |  |  |  | 
13 | N#Cc1c(N)nc(SCC(=O)NCc2ncc[nH]2)c(C#N)c1-c1ccco1 [Compound 14, 2-{[6-Amino-3,5-dicyano-4-(furan-2-yl)pyridin-2-yl]sulfanyl}-N-(1H-imidazol-2-ylmethyl)acetamide] | 87 ± 7 | 817 ± 71 |  | 6 | > 1000 | 33 |  |  |  |  | 
